{"source": "paper PMC5542762", "about": "(ChemistryOpen, 2017)", "key": {"PFDH": {"molecular_target": "T1, PFDH (Pseudomonas sp. 101, UniProt P33160)", "T1 sequence (P33160 2-401)": "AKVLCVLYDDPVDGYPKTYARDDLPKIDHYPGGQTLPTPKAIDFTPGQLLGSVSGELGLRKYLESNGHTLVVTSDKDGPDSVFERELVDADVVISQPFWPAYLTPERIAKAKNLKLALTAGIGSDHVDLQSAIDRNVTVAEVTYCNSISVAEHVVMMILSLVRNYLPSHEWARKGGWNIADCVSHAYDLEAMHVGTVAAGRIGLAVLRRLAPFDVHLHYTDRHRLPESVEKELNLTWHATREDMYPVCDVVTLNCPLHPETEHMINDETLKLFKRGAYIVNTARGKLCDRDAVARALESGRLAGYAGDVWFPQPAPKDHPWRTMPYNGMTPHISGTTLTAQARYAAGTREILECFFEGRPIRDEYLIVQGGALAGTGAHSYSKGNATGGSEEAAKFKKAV", "experiment": "NAD+ reduction at […] nm, 96-well plate", "type": "biochemical", "conditions": "sodium formate 20 mM, NAD+ 0.50 mM; Na2CO3-NaHCO3 100 mM, pH 9.0, room temperature"}, "EcTAL": {"molecular_target": "T2, EcTAL (Escherichia coli, UniProt P04968)", "T2 sequence (P04968 1-514)": "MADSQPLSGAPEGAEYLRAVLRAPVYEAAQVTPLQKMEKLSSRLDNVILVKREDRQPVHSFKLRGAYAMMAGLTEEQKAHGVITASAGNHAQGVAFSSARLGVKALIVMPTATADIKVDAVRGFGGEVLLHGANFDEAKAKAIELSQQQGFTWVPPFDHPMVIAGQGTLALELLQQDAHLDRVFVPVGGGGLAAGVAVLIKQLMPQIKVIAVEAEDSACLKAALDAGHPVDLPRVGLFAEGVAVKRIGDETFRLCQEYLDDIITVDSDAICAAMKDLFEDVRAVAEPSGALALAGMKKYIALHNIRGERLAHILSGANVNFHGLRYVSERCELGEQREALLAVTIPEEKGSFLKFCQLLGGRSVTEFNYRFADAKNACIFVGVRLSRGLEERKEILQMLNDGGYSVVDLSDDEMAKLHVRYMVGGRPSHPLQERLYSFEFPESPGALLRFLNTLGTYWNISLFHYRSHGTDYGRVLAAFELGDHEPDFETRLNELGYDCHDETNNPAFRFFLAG", "experiment": "HPLC of remaining L-threonine after FDAA derivatization", "type": "biochemical", "conditions": "L-threonine 100 mM, pyridoxal phosphate 10 μM; Na2CO3-NaHCO3 100 mM, pH 9.0, 30 °C"}}, "note": "Counter-ions that a name gives are not always drawn."}
{"smiles": "O=CO", "note": "[sodium formate]", "values": [{"measurement": "NAD+ reduction at 340 nm, 96-well plate", "setting": "PFDH", "value": "the activity of the FDH toward the oxidation of formate were determined"}]}
{"smiles": "C[C@@H](O)[C@H](N)C(=O)O", "note": "[L-threonine]", "values": [{"measurement": "HPLC of remaining L-threonine after FDAA derivatization", "setting": "EcTAL", "value": "The activity of EcTAL toward L‐threonine was determined by measuring the decrease of threonine"}]}
